Experimental data taken from the supplement of paper PMC11208160.

Assay: recombinant barcode read abundance after kanamycin selection (control-corrected) (log10(CPM+1)); higher = more efficient recombination; sequences stand for … in AGTGCAGAGAAAATCGGCCAGTTTTCTCTGCCTGCAGTCCGCATGCCGT…AGATTTATGCAGCGGACTGCCTTTCTCCCAAAGTGATAAACCGGACAGTATCATGGACCGGTTTTCCCGGTAATCCGTATTTGCAAGGTTGGTTTCACT; site = the 11-nt target
Method in brief: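 Duplicate cultures were plated either on chloramphenicol/ampicillin LB agar, serving as control, or on chloramphenicol/ampicillin/kanamycin with 0.1 mM IPTG. These came from a pooled E. coli library co-electroporated with a donor plasmid, each member pairing a target with an IS621 bridge RNA target-binding loop. Recombination efficiency equals averaged, control-corrected counts per million of recombinant-junction barcodes. It is listed as log10(CPM+1).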
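Further: IS621 recombinase and bridge RNA in Escherichia coli cells.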

Row | Sequence | recombinant barcode read abundance (log10)
1 | GTCTTACCTTGGGTTCTAACCTGTTGCCT (site GTCGTACCTAG) | 0.098
2 | GTCTTACCTTGGGTTCTAACCTGTTGCCT (site GTCTTACCTAG) | 1.34
3 | GTCTTACCTTGGGTTCTAACCTGTTGCTT (site GTCTTACCTAA) | 0.74
4 | GTCTTACCTTGGGTTCTAACCTGTTGCTT (site TTCATACCTAA) | 0.128
5 | GTCTTCCCTTGGGTTCTAACCTGTTGCCG (site ATCTTACCTCG) | 0.0566
6 | GTCTTCCCTTGGGTTCTAACCTGTTGCCG (site GTCTTCCCTCG) | 1.5
7 | GTCTTCCCTTGGGTTCTAACCTGTTGCGT (site GTCATGCCTAC) | 0.0371
8 | GTCTTCCCTTGGGTTCTAACCTGTTGCGT (site GTCTTCCCTAC) | 1.74
9 | GTGAAGCCTTGGGTTCTAACCTGTTGCCT (site ATGAAGCCTAG) | 0.826
10 | GTGAAGCCTTGGGTTCTAACCTGTTGCCT (site CTGAAGCCTAG) | 0.464
11 | GTGAAGCCTTGGGTTCTAACCTGTTGCCT (site GTGAAGCCTAG) | 1.48
12 | GTGAAGCCTTGGGTTCTAACCTGTTGCCT (site TTGAAGCCTAG) | 0.421
13 | GTGACCGCTTGGGTTCTAACCTGTTGCCT (site GTAACCGCTAG) | 2
14 | GTGACCGCTTGGGTTCTAACCTGTTGCCT (site GTCACCGCTAG) | 0.235
15 | GTGACCGCTTGGGTTCTAACCTGTTGCCT (site GTGACCGCTAG) | 1.89
16 | GTGACCGCTTGGGTTCTAACCTGTTGCCT (site GTTACCGCTAG) | 0.59
17 | GTGACCTCTTGGGTTCTAACCTGTTGCTG (site GGGACCTCTGA) | 0.0723
18 | GTGACCTCTTGGGTTCTAACCTGTTGCTG (site GTGACCTCTCA) | 1.51
19 | GTGAGGCCTTGGGTTCTAACCTGTTGCCT (site ATGAGGCCTAG) | 1.19
20 | GTGAGGCCTTGGGTTCTAACCTGTTGCCT (site CTGAGGCCTAG) | 0.151
21 | GTGAGGCCTTGGGTTCTAACCTGTTGCCT (site GTGAGGCCTAG) | 0.153
22 | GTGAGGCCTTGGGTTCTAACCTGTTGCCT (site TTGAGGCCTAG) | 0.0445

Row | Sequence | recombinant barcode read abundance (log10)
23 | GTGAGGTCTTGGGTTCTAACCTGTTGCCT (site GTGAGGTCTAA) | 0.107
24 | GTGAGGTCTTGGGTTCTAACCTGTTGCCT (site GTGAGGTCTAC) | 0.343
25 | GTGAGGTCTTGGGTTCTAACCTGTTGCCT (site GTGAGGTCTAG) | 1.62
26 | GTGAGGTCTTGGGTTCTAACCTGTTGCCT (site GTGAGGTCTAT) | 0.442
27 | GTGAGTCCTTGGGTTCTAACCTGTTGCGT (site GTGAGTCCTAC) | 2.61
28 | GTGAGTCCTTGGGTTCTAACCTGTTGCGT (site GTTGGTCCTAC) | 0.0363
29 | GTGATCCCTTGGGTTCTAACCTGTTGCTG (site GTGAACTCTCA) | 0.0648
30 | GTGATCCCTTGGGTTCTAACCTGTTGCTG (site GTGATCCCTCA) | 1.87
31 | GTGCACACTTGGGTTCTAACCTGTTGCGG (site GTGCACACTCC) | 2.44
32 | GTGCACACTTGGGTTCTAACCTGTTGCGG (site GTGCACTCTCC) | 0.322
33 | GTGCAGACTTGGGTTCTAACCTGTTGCCT (site GTACAGACTAG) | 2.5
34 | GTGCAGACTTGGGTTCTAACCTGTTGCCT (site GTCCAGACTAG) | 0.483
35 | GTGCAGACTTGGGTTCTAACCTGTTGCCT (site GTGCAGACTAG) | 2.05
36 | GTGCAGACTTGGGTTCTAACCTGTTGCCT (site GTTCAGACTAG) | 0.367
37 | GTGCCCGCTTGGGTTCTAACCTGTTGCGG (site GTGCCCGCTCC) | 1.11
38 | GTGCCCGCTTGGGTTCTAACCTGTTGCGG (site GTGCCCTCTCG) | 0.205
39 | GTGCGCCCTTGGGTTCTAACCTGTTGCGT (site GTGCGCCCTAC) | 2.13
40 | GTGCGCCCTTGGGTTCTAACCTGTTGCGT (site GTGCGCCCTCC) | 0.617
41 | GTGGAGGCTTGGGTTCTAACCTGTTGCCT (site ATGGCGGCTAG) | 0.371
42 | GTGGAGGCTTGGGTTCTAACCTGTTGCCT (site GTGGAGGCTAG) | 1.5
43 | GTGGAGTCTTGGGTTCTAACCTGTTGCGT (site GTGGAGTCTAC) | 1.49
44 | GTGGAGTCTTGGGTTCTAACCTGTTGCGT (site TATCCTCCTCG) | 0.0104

Row | Sequence | recombinant barcode read abundance (log10)
45 | GTGGCGTCTTGGGTTCTAACCTGTTGCCT (site GTGGCGTCTAG) | 1.79
46 | GTGGCGTCTTGGGTTCTAACCTGTTGCCT (site TTGGCCTCTAG) | 0.104
47 | GTGGGCGCTTGGGTTCTAACCTGTTGCCT (site GTAGGCGCTAG) | 0.973
48 | GTGGGCGCTTGGGTTCTAACCTGTTGCCT (site GTCGGCGCTAG) | 0.165
49 | GTGGGCGCTTGGGTTCTAACCTGTTGCCT (site GTGGGCGCTAG) | 1.33
50 | GTGGGCGCTTGGGTTCTAACCTGTTGCCT (site GTTGGCGCTAG) | 0.524
51 | GTGGTAACTTGGGTTCTAACCTGTTGCCT (site GTGGTAACTAG) | 0.647
52 | GTGGTAACTTGGGTTCTAACCTGTTGCCT (site GTGGTACCTAG) | 0.19
53 | GTGGTAACTTGGGTTCTAACCTGTTGCCT (site GTGGTAGCTAG) | 0.3
54 | GTGGTAACTTGGGTTCTAACCTGTTGCCT (site GTGGTATCTAG) | 0.0678
55 | GTGTACTCTTGGGTTCTAACCTGTTGCTT (site GTGGACTCTTA) | 0.0612
56 | GTGTACTCTTGGGTTCTAACCTGTTGCTT (site GTGTACTCTAA) | 1.35
57 | GTGTATCCTTGGGTTCTAACCTGTTGCAT (site GTGTATCCTAT) | 1.7
58 | GTGTATCCTTGGGTTCTAACCTGTTGCAT (site GTGTCTCCTAT) | 0.279
59 | GTGTATCCTTGGGTTCTAACCTGTTGCAT (site GTGTGTCCTAT) | 0.0301
60 | GTGTATCCTTGGGTTCTAACCTGTTGCAT (site GTGTTTCCTAT) | 0.0918
61 | GTGTGAACTTGGGTTCTAACCTGTTGCCG (site GAGTTAACTCG) | 0.0504
62 | GTGTGAACTTGGGTTCTAACCTGTTGCCG (site GTGTGAACTCG) | 0.992
63 | GTGTTTGCTTGGGTTCTAACCTGTTGCCT (site GAGTTTGCTAG) | 0.0456
64 | GTGTTTGCTTGGGTTCTAACCTGTTGCCT (site GCGTTTGCTAG) | 0.0586
65 | GTGTTTGCTTGGGTTCTAACCTGTTGCCT (site GGGTTTGCTAG) | 0.0616
66 | GTGTTTGCTTGGGTTCTAACCTGTTGCCT (site GTGTTTGCTAG) | 0.596
